Here are results for three compounds from US20230242540A1, “COMPOUNDS HAVING ANTICANCER ACTIVITY” (The Trustees of Princeton University, priority 2020, published 2023).

One assay relates to HCT116 cell line. Nature of the assay: Cell growth inhibition by resazurin, HCT116. Format: cell-based. The conditions noted are these: HCT116, 4 days, with or without hypoxanthine and thymidine supplement, FIG. 1A. As for the experimental part:
(§1) Cells of (a) HCT116 and (b) Panc1 cell lines were each seeded in 96-well plates at the density of 3000/well in 80 μL of DMEM media supplemented with 10 vol % dialyzed FBS. The next day, 10 μL of media with or without hypoxanthine (1 mM) and thymidine (160 μM) was added to each well. 10 μL of Compound 1 diluted in media as 10× stock of desired concentration was also added. Relative cell number is measured by resazurin right before and 4 days after the addition of Compound 1. Namely, resazurin dissolved in phosphate-buffered saline (PBS) was added to each well to a final concentration of 10 μg/mL followed by 1-hour incubation at 37° C. Fluorescence (excitation 550 nm, emission 590 nm) is then measured by a microplate reader. […] Inhibition of growth in both cancer cell lines was achieved via disruption of purine and thymine synthesis.

The next assay has as its system Panc1 cell line. Nature of the assay: Cell growth inhibition by resazurin, Panc1. Format: cell-based. The conditions noted are these: Panc1, 4 days, with or without hypoxanthine and thymidine supplement, FIG. 1B. The method, then:
as §1
For orientation: The colour change of resazurin is a common sign of viable cells or microbes.

Assay [1] deals with isogenic CHO cell line with low RFC expression. Nature of the assay: Folate competition, IC50 in CHO cells with low RFC expression. Format: cell-based. Conditions: Cricetulus griseus, folic acid free RPMI, 10 vol. % dialyzed FBS, 25 nM 5-formyl THF. As for the experimental part: (§2) Compound 1 was tested relative to pemetrexed and methotrexate against two isogenic CHO cell lines with low and high RFC expression levels. […] Table II provides the IC50 values for Compound 1, Pemetrexed and Methotrexate.

In assay [2] the test system is isogenic CHO cell line with high RFC expression. Nature of the assay: Folate competition, IC50 in CHO cells with high RFC expression. Format: cell-based. The conditions noted are these: Cricetulus griseus, folic acid free RPMI, 10 vol. % dialyzed FBS, 25 nM 5-formyl THF. As for the experimental part: as §2
Assay [3] concerns KPC pancreatic ductal adenocarcinoma allograft. Nature of the assay: KPC pancreatic ductal adenocarcinoma allograft. The format is in vivo, male C57BL/6 mice. Conditions: 5 mg/kg intraperitoneally once daily. As for the experimental part: Tumor harvested from K-ras^LSL.G12D/+; Trp53^R172H/+; Pdx-1-Cre (KPC) mice was passaged at the flank of C57BL/6 subcutaneously. To initiate allografts, subcutaneous tumors were harvested and minced in DMEM media, mixed with equal volume of Matrigel basement membrane matrix (Corning 354234), and injected subcutaneously at the flank of male C57BL/6 mice. Tumors were measured twice per week. Once the average tumor volume reaches 100 mm^3, Compound 1 (5 mg/kg body weight, dissolved in 10% 2-hydroxypropyl-β-cyclodextrin) and vehicle (10% 2-hydroxypropyl-β-cyclodextrin, 10 mL/kg body weight) were injected intraperitoneally once daily, with continued tumor monitoring. At the end of experiment, mice were euthanized by cervical dislocation after being fasted for 6 hr. Tumors are collected into aluminum foil, clamped by a Wollenberg clamp pre-cooled in liquid N2, and kept cold in liquid N2.
To extract metabolites from tumor samples, tumors were first ground by a Cryomill (Retsch). About 10 mg of ground tissue is measured and extracted by extraction buffer (acetonitrile:methanol:H2O=2:2:1, then supplemented with 0.5 vol % formic acid) at the ratio of 370 μL buffer per 10 mg tissue. […] Metabolite levels were measured by Q Exactive Plus Hybrid Quadrupole-Orbitrap coupled with […] (HILIC) operating in the negative ionization mode.

Assay [4] deals with HCT116 colorectal carcinoma xenograft. Nature of the assay: HCT116 colorectal carcinoma xenograft. The conditions noted are these: 5 mg/kg intraperitoneally once daily. Format: in vivo, female  mice.
Assay [5] deals with MC38 mouse colon adenocarcinoma allograft. Nature of the assay: MC38 mouse colon adenocarcinoma allograft. The format is in vivo, female C57BL/6 mice. Conditions: 5 mg/kg intraperitoneally once daily, FIG. 5A. The method, then:
To initiate allografts, 2×10^6 MC38 cells were injected subcutaneously at the flank of female C57BL/6 mice. Once the average tumor volume reaches 50 mm^3, IRS-17 (5 mg/kg body weight, dissolved in 10% 2-hydroxypropyl-β-cyclodextrin) and vehicle (10% 2-hydroxypropyl-β-cyclodextrin, 10 mL/kg body weight) are injected intraperitoneally once daily. After the final dose, mice were fasted for 12 hr. Then blood was collected by tail snip into a tube without anticoagulants. Serum was collected by taking the supernatant after centrifugation. Mice were then euthanized by cervical dislocation, and tumors are harvested and frozen in liquid N2. Tumor metabolites were extracted and measured as previously described in C. To extract serum metabolites, 2.5 μL of serum was added into 80 μL of methanol. Samples were centrifuged (16000 g for 10 min) at 4° C., and supernatant is collected.

What is called IC50 is the concentration that inhibits the measured activity by half. A low value points to higher potency.

Take `C#Cc1ccc(Cn2ccc3c4c(N)nc(N)nc4ccc32)cc1` [Compound 1]: the cell growth entry in the assay with HCT116 cell line and in the assay with Panc1 cell line was “inhibited cell growth” in each case. Besides, the IC50 in assay [1] was below 0.002 nM; in assay [2], 0.06 nM. For the same compound, the “change in tumor volume over time” value in assay [3] (FIG. 3A) and in assay [4] (FIG. 4A) was “substantially inhibited tumor growth” each time. For the same compound, the tumor doubling time entry in assay [3] (FIG. 3B) and in assay [4] (FIG. 4B) was “protracted tumor doubling time” each time. Moreover, the “tumor volume over the treatment period” value in assay [5] is on record as “some reduction in tumor volume”.

On to `CN(Cc1cnc2nc(N)nc(N)c2n1)c1ccc(C(=O)N[C@@H](CCC(=O)O)C(=O)O)cc1` [Methotrexate], for which the IC50 in assay [1] worked out at 4000 nM; in assay [2] it was 480 nM.

In the case of `Nc1nc2[nH]cc(CCc3ccc(C(=O)N[C@@H](CCC(=O)O)C(=O)O)cc3)c2c(=O)[nH]1` [Pemetrexed], the IC50 in assay [1] is 800 nM; in assay [2], 150 nM.
